Assay results reported in patent US5739129A, “CCK or gastrin modulating 5-heterocyclic-1, 5 benzodiazepines” (Glaxo Wellcome Inc., priority 1994, dated 1998).

Each compound was assayed on guinea pig gall bladder (assay: Guinea pig gall bladder assay (contraction of isolated gallbladder rings)). Settings: Cavia porcellus, compounds tested at 1 μM, minimum of three determinations, read-out: Contraction (% sulfated CCK-8 maximal response).
Type: cell-based
From the text: GUINEA PIG GALL BLADDER ASSAY Tissue Preparation: Gallbladders were removed from guinea pigs sacrificed by cervical dislocation. The isolated gallbladders were cleaned of adherent connective tissue and cut into two rings from each animal (2-4 mm in length). The rings were subsequently suspended in organ chambers containing a physiological salt solution of the following composition (mM): NaCl (118.4); KCl (4.7); MgSO4 ×H2 O (1.2); CaCl2 ×2H2 O (2.5); […] (1.2); NaHCO3 (25) and dextrose (11.1). The bathing solution was maintained at 37° C. and aerated with 95% O2 /5%CO2. Tissues were connected via gold chains and stainless steel mounting wires to isometric force displacement transducers (Grass, Model FT03 D). Responses were then recorded on a polygraph (Grass, Model 7E). […] Assay: Rings were gradually stretched (over a 120 min. period) to a basal resting tension of 1 gm which was maintained throughout the experiment. During the basal tension adjustment period, the rings were exposed to acetylcholine (ACH, 10^-6 M) four times to verify tissue contractility. The tissues were then exposed to a submaximal dose of sulfated CCK-8 (Sigma, 3×10^-9 M). After obtaining a stable response, the tissues were washed out 3 times rapidly and every 5 to 10 minutes for 1 hour to reestablish a stable baseline. Compounds were dissolved in dimethylsulfoxide (DMSO) then diluted with water and assayed via a cumulative concentration-response curve to test compound (10^-11 to 3×10^-6 M) followed by a concentration-response curve to sulfated CCK-8 (10^-10 to 10^-6 M) in the presence of the highest dose of the test compound. As a final test, ACH (10 mM) was added to induce maximal contraction. A minimum of three determinations of activity were made for each test compound. The compounds were tested at a concentration of 1 μM and the results expressed as % sulfated CCK-8 maximal response.
Work on `COc1ccc(N(C(=O)CN2C(=O)C(NC(=O)c3cc4ccccc4[nH]3)C(=O)N(c3ccccn3)c3ccccc32)C(C)C)cc1` (single isomer, unassigned) [Example 3, (+) or (-) 1H-Indole-2-carboxylic acid {1-[Isopropyl-(4-methoxy-phenyl)-carbamoylmethyl]-2,4-dioxo-5-pyridin-2-yl-2,3,4,5-tetrahydro-1H-benzo[b][1,4]diazepin-3-yl}-amide] yielded an Emax at 1 µM of 83%.
`COc1ccc(N(C(=O)CN2C(=O)C(NC(=O)c3cc4ccccc4[nH]3)C(=O)N(c3cccnc3)c3ccccc32)C(C)C)cc1` (single isomer, unassigned) [Example 14, (+) or (-) 1H-Indole-2-carboxylic acid [I-[isopropyl-(4-methoxyphenyl)-carbamoylmethyl]-2,4-dioxo-5-pyridin-3-yl-2,3,4,5-tetrahydro-1H-benzo[b][1,4]diazepin-3-yl]amide] showed an Emax at 1 µM of 84%.
For `COc1ccc(N(C(=O)CN2C(=O)C(NC(=O)Nc3ccccc3)C(=O)N(c3ccccn3)c3ccccc32)C(C)C)cc1` (stereo not shown) [Example 1, 2-[2,4-Dioxo-3-(3-phenyl-ureido)-5-pyridin-2-yl-2,3,4,5-tetrahydrobenzo[b][1,4]diazepin-1-yl]-N-isopropyl-N-(4-methoxy-phenyl)-acetamide], the Emax at 1 µM was 91%.
`COc1ccc(N(C(=O)CN2C(=O)C(NC(=O)c3cc4ccccc4[nH]3)C(=O)N(c3ccccn3)c3ccccc32)C(C)C)cc1` (stereo not shown) [Example 2, 1H-Indole-2-carboxylic acid {1-[Isopropyl-(4-methoxy-phenyl)-carbamoylmethyl]-2,4-dioxo-5-pyrdin-2-yl-2,3,4,5-tetrahydro-1H-benzo[b][1,4]diazepin-3-yl}-amide] gave an Emax at 1 µM of 64%.
`COc1ccc(N(C(=O)CN2C(=O)C(NC(=O)c3cc4ccccc4[nH]3)C(=O)N(c3ncccn3)c3ccccc32)C(C)C)cc1` (stereo not shown) [Example 5, 1H-Indole-2-carboxylic acid {1-[Isopropyl-(4-methoxy-phenyl)-carbamoylmethyl]-2,4-dioxo-5-pyrimidin-2-yl-2,3,4,5-tetrahydro-1H-benzo[b][1,4]diazepin-3-yl}-amide] showed an Emax at 1 µM of 51%.
With `COc1ccc(N(C(=O)CN2C(=O)C(NC(=O)c3cc4ccccc4[nH]3)C(=O)N(c3c(C)nn(C)c3C)c3ccccc32)C(C)C)cc1` (stereo not shown) [Example 6, 1H-Indole-2-carboxylic acid [1-[isopropyl-(4-methoxy-phenyl)-carbamoylmethyl]-2,4-dioxo-5-(1,3,5-trimethyl-1H-pyrazol-4-yl)-2,3,4,5-tetrahydro-1H-benzo[b][1,4]diazepin-3-yl]-amide] the Emax at 1 µM was 32%.
`COc1ccc(N(C(=O)CN2C(=O)C(NC(=O)c3cc4ccccc4[nH]3)C(=O)N(c3cccnc3)c3ccccc32)C(C)C)cc1` (stereo not shown) [Example 7, 1H-Indole-2-carboxylic acid {1[isopropyl-(4-methoxy-phenyl)-carbamoylmethyl]-2,4-dioxo-5-pyridin-3-yl-2,3,4,5-tetrahydro-1H-benzo[b][1,4]diazepin-3-yl}-amide] showed an Emax at 1 µM of 77%.
`COc1ccc(N(C(=O)CN2C(=O)C(NC(=O)Nc3ccccc3)C(=O)N(c3cccnc3)c3ccccc32)C(C)C)cc1` (stereo not shown) [Example 8, 2-[2,4-dioxo-3-(3-phenyl-ureido)-5-pyridin-3-yl-2,3,4,5-tetrahydrobenzo[b][1,4]diazepin-1-yl]-N-isopropyl-N-(4-methoxy-phenyl) acetamide] showed an Emax at 1 µM of 81%.
In the case of `COc1ccc(N(C(=O)CN2C(=O)C(NC(=O)Nc3cccc(C(=O)O)c3)C(=O)N(c3cccnc3)c3ccccc32)C(C)C)cc1` (stereo not shown) [Example 10, 3-(3-{1-[isopropyl-(4-methoxy-phenyl)-carbamoylmethyl]-2,4-dioxo-5-pyridin-3-yl-2,3,4,5-tetrahydro-1H-benzo[b][1,4]diazepin-3-yl}-ureido)-benzoic acid], the Emax at 1 µM was 83%.
In the case of `COc1ccc(N(C(=O)CN2C(=O)C(NC(=O)c3cc4ccccc4[nH]3)C(=O)N(c3ccncc3)c3ccccc32)C(C)C)cc1` (stereo not shown) [Example 11, 1H-Indole-2-carboxylic acid {1-[Isopropyl-(4-methoxy-phenyl)-carbamoylmethyl]-2,4-indoledioxo-5-pyridin4-yl-2,3,4,5,5a, 9a-hexahydro-1H-benzo[b][1,4]diazepin-3-yl}-amide], the Emax at 1 µM was 67%.
`COc1ccc(N(C(=O)CN2C(=O)C(NC(=O)Nc3cccc(C(=O)O)c3)C(=O)N(c3cccnc3)c3cc(F)ccc32)C(C)C)cc1` (stereo not shown) [Example 13, 3-(3-{7-Fluoro-1-[isopropyl-(4-methoxy-phenyl)-carbamoylmethyl]-2,4-dioxo-5-pyridin-3-yl-2,3,4,5-tetrahydro-1H-benzo[b][1,4]diazepin-3-yl}-ureido)-benzoic acid] was tested, and the Emax at 1 µM was 96%.

Same assay, conditions: compounds tested at 1 μM, minimum of three determinations
In the case of `COc1ccc(N(C(=O)CN2C(=O)C(NC(=O)c3cc4ccccc4[nH]3)C(=O)N(c3ccccn3)c3ccccc32)C(C)C)cc1` (single isomer, unassigned) [Example 4, (+) or (-) 1H-Indole-2-carboxylic acid {1-[Isopropyl-(4-methoxy-phenyl)-carbamoylmethyl]-2,4-dioxo-5-pyridin-2-yl-2,3,4,5-tetrahydro-1H-benzo[b][1,4]diazepin-3-yl}-amide], the “Contraction (% sulfated CCK-8 maximal response)” value was 67%.
With `COc1ccc(N(C(=O)CN2C(=O)C(NC(=O)c3cc4ccccc4[nH]3)C(=O)N(c3cccnc3)c3ccccc32)C(C)C)cc1` (single isomer, unassigned) [Example 15, (+) or (-) 1H-Indole-2-carboxylic acid [I-[isopropyl-(4-methoxyphenyl)-carbamoylmethyl]-2,4-dioxo-5-pyridin-3-yl-2,3,4,5-tetrahydro-1H-benzo[b][1,4]diazepin-3-yl]amide] the “Contraction (% sulfated CCK-8 maximal response)” value was 93%.
